{"source": "patent US11981921B2", "about": "“TIL expansion processes using specific cytokine combinations and/or AKTi treatment” (Iovance Biotherapeutics, Inc., priority 2022, dated 2024)", "key": {"TILs [1]": {"test_system": "TILs", "test": "Evaluation of I-TIL process conditions (pre-REP and REP, 18 tumors)", "assay_type": "cell-based", "protocol": "Tumors (N=18) were received and processed for both pre-REP and REP expansion to test and select a preferred set of conditions, nominated as the final I-TIL (invigorated TIL) conditions.\nCytokines were added twice on Day 0 and Day 5 of pre-REP.\nPre-REP cells were then frozen until all pre-REP samples were generated in order to initiate the REP together at the same time. Frozen pre-REP TILs were thawed and rested overnight in their corresponding conditions followed by REP in 24-well G-Rex plates. […] Cytokines were added twice on Day 0 and Day 5 and AZD5363 was only added once on Day 0 of REP."}, "KILR® THP-1 cells": {"test_system": "KILR® THP-1 cells", "test": "TIL cytotoxicity in coculture with KILR THP-1 cells", "assay_type": "cell-based", "conditions": "24 hrs coculture, 10:1, Invigo-T process", "protocol": "TILs were then tested for cytotoxicity in an allogeneic environment after coculture for 24 hrs with KILR® THP-1 cells at a 10:1 effector-to-target cell. […] TILs were next stimulated every 3 days with TransAct followed by coculture for 24 hrs with KILR® THP-1 cells before being assessed for cytotoxicity and IFNg expression (as measured byflow cytometry staining)."}, "TILs [2]": {"test_system": "TILs", "conditions": "1 or 2 uM given once or twice, with IL-2 1000 IU/ml + IL-21 10 ng/ml", "excerpt": "(§1) The overarching goal of these experiments is to examine the growth conditions during the whole expansion process of TILs to augment their stem-like attributes while improving their functional and phenotypic characteristics.\nFrozen pre-REP TILs were thawed and REPed under different conditions in 24-well GREX plates. […] Pre-REP TILs from 3 different indications were thawed and REPped in a G-REX 24 well plate. The following conditions were included in the REP protocol used in 24-well G-Rex plates: • 1) Feeder:TIL ratio 250:1 with 5 million feeders and 20,000 TILs per well, OKT3 at 30 ng/mL, • 2) On day 0 the REP is initiated with 3 mL of CM2 with cytokines and compounds, • 3) On day five 5 mL of CM4 media was added to each well, • 4) All cytokines and compounds are added twice on day 0 and day 5."}, "TILs [3]": {"test_system": "TILs", "protocol": "This Example describes the evaluation of the effects of IL-21 (10 ng/ml)+ AZD5363 in combination with increasing doses of IL-2 or IL-15 and evaluation of the overall impact on preventing effector differentiation, promoting more stem-like attributes and improving functionality of TILs during REP. The overarching goal of these experiments is to examine the growth conditions during the whole expansion process of TILs to augment their stem-like attributes while improving their functional and phenotypic characteristics.\nFrozen pre-REP TILs were thawed and REPed under different conditions in 24-well GREX plates. Cytokines were given twice (Day 0 and Day 5 of pre-REP). Pre-REP TILs from 3 different indications were thawed and REPped in a G-REX 24 well plate. The following conditions were included in the REP protocol used in 24-well G-Rex plates: • 1) Feeder:TIL ratio 250:1 with 5 million feeders and 20,000 TILs per well, OKT3 at 30 ng/mL, • 2) On day 0 the REP is initiated with 3 mL of CM2 with cytokines and compounds, • 3) On day five 5 mL of CM4 media was added to each well, • 4) All cytokines and compounds are added twice on day 0 and day 5. The following conditions were tested: IL-2 3000 IU/mL, IL-2 2000 IU/mL, IL-2 1000 IU/mL, IL-2 3000 IU/mL+IL-21 10 ng/ml, IL-2 2000 IU/mL+IL-21 10 ng/ml, IL-2 1000 IU/mL+IL-21 10 ng/ml, IL-2 3000 IU/mL+IL-21 10 ng/ml+2 uM AZD5363 (added once), IL-2 2000 IU/mL+IL-21 10 ng/ml+2 uM AZD5363 (added once), IL-2 1000 IU/mL+IL-21 10 ng/ml+2 uM AZD5363 (added once), and IL-15 10 ng/ml+IL-21 10 ng/ml+1 uM AZD5363 (added twice)."}, "TILs [4]": {"test_system": "TILs", "excerpt": "as §1\nPre-REP TILs from 3 different indications were thawed and REPped in a G-REX 24 well plate. Cytokines were given twice (Day 0 and Day 5 of pre-REP). The following conditions were included in the REP protocol used in 24-well G-Rex plates: • 1) Feeder:TIL ratio 250:1 with 5 million feeders and 20,000 TILs per well, OKT3 at 30 ng/mL, • 2) On day 0 the REP is initiated with 3 mL of CM2 with cytokines and compounds, • 3) On day five 5 mL of CM4 media was added to each well, • 4) All cytokines and compounds are added twice on day 0 and day 5.", "remark": "listed apart in the source"}, "TIL": {"test_system": "TIL", "test": "AKT inhibition during ex vivo TIL expansion (REP)", "assay_type": "cell-based", "protocol": "Patient tumors from different indications were received, fragmented, and subjected to an expansion protocol for TIL manufacturing. Different doses (0.3 μM and 1 μM) of the pan-AKT inhibitor (AKTi) ipatasertib were added to the culture during ex vivo expansion. The expansion potential, as well as the phenotypic and functional characteristics of TIL were evaluated on the final TIL product."}, "[5]": {"conditions": "with IL-15 10 ng/ml + IL-21 10 ng/ml"}, "[6]": {"conditions": "AKTi treatment during ex vivo expansion"}}, "note": "Read-outs that look alike come from different tables or passages of the source."}
{"compound": "IL-15: cytokine used at 10 ng/ml with IL-21 during REP", "values": [{"measurement": "yield and viability of the process", "setting": "TILs [1]; IL-15 conditions", "result": "significantly augmented"}]}
{"compound": "AZD5363", "values": [{"measurement": "cytotoxicity with or without AZD5363", "setting": "KILR® THP-1 cells", "result": "no significant difference"}, {"measurement": "phenotypic changes on TILs (inhibitory receptors, activation, stem-like qualities, functionality)", "setting": "TILs [2]", "result": "further beneficial phenotypic changes"}, {"measurement": "effector differentiation, stem-like phenotype, functional responses, inhibitory receptor expression", "setting": "TILs [3]; 2 uM given once, with IL-2 1000 IU/ml + IL-21 10 ng/ml", "result": "induces many of the desired changes"}, {"measurement": "activation state of TILs", "setting": "TILs [3]; IL-15 combination", "result": "further reduced"}, {"measurement": "effects on cytokine production, in particular IL-2", "setting": "TILs [3]; [5]", "result": "quite significant"}, {"measurement": "same effects with IL-15 instead of IL-2", "setting": "TILs [3]; with IL-15 10 ng/ml + IL-21 10 ng/ml, vs IL-2 combination", "result": "comparable"}, {"measurement": "effector differentiation, stem-like phenotype, functional responses, inhibitory receptor expression", "setting": "TILs [1]; 2 uM once on Day 0 of REP, with IL-15 10 ng/ml + IL-21 10 ng/ml", "result": "induces many of the desired changes"}, {"measurement": "effects on increasing IFNg, TNFa and IL-2", "setting": "TILs [1]; with IL-15 + IL-21, vs IL-2 1000 IU/ml + IL-21 10 ng/ml + AZD5363", "result": "more pronounced"}, {"measurement": "effector differentiation, stem-like phenotype, functional responses, inhibitory receptor expression", "setting": "TILs [4]; [5]", "result": "induces many of the desired changes"}, {"measurement": "effects on increasing IFNg, TNFa and IL-2", "setting": "TILs [4]; with IL-15 + IL-21, vs IL-2 1000 IU/ml and IL-21 10 ng/ml", "result": "more pronounced"}]}
{"compound": "CC(C)NC[C@@H](C(=O)N1CCN(c2ncnc3c2[C@H](C)C[C@H]3O)CC1)c1ccc(Cl)cc1", "note": "[AKTi, ipatasertib]", "values": [{"measurement": "expansion and viability of TIL", "setting": "TIL; 1 μM dose, relative to control", "result": "equivalent"}, {"measurement": "population of less differentiated CD39−CD69− cells", "setting": "TIL; 1 μM dose, relative to control, present even after re-stimulation", "result": "doubled"}, {"measurement": "cytotoxicity of TIL", "setting": "TIL; [6]", "result": "increased cytotoxicity"}, {"measurement": "frequency of IFNγ+TNFα+CD8+ T cells", "setting": "TIL; [6]", "result": "increase"}, {"measurement": "expression of CD38 and transcription factors T-bet and Tox", "setting": "TIL; CD39−CD69− cells after re-stimulation", "result": "reduced expression"}]}
